pIC50: −log10 of the molar value.
Molecular target: Pyruvate kinase PKLR (Homo sapiens) (UniProt P30613)
Assay: Inhibition of human erythrocytes pyruvate kinase

Sequence of Pyruvate kinase PKLR (Homo sapiens) (P30613 whole entry, looked up): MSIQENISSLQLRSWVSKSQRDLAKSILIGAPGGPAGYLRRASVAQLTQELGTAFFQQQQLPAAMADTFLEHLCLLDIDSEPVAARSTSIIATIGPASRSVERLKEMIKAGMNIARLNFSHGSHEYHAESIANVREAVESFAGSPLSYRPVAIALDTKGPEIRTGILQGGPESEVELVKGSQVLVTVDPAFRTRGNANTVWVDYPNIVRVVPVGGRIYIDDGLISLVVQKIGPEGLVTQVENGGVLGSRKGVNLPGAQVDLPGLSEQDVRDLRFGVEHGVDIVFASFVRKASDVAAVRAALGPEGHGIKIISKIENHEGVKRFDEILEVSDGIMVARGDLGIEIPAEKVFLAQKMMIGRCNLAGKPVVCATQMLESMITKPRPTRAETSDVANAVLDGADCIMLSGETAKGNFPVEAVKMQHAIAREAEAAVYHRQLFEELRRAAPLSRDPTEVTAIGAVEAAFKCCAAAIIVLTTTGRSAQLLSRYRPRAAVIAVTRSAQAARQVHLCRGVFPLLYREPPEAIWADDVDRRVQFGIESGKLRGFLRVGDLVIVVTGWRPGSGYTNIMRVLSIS

pIC50: 5.10
SMILES: O=C(O)c1ccc(SC2=NS(=O)(=O)c3ccccc32)cc1

Reference: BindingDB's records for PubMed 34726055 (Central University of Punjab, 2022)
